{
  "source": "patent US11628153B2",
  "about": "“Agent for preventing or amelioriting nocturia” (Kao Corporation, priority 2018, dated 2023)",
  "tested_on": "Spontaneously Hypertensive Rats (SHRs)",
  "assay": "Urination behavior recording in metabolic cages after 8 weeks of oral intake of rosmarinic acid-containing feed (urinary frequency, urine volume)",
  "type": "in vivo, rat",
  "conditions": "for Mean urinary frequency of rats during rest period / Mean urine volume of rats during rest period / Mean urinary frequency of rats during activity period / Mean urine volume of rats during activity period: 0.5 mass % rosmarinic acid feed, 8 weeks, mean ± standard error, n=12; for Significant difference in mean urinary frequency, treatment vs control group / Significant difference in mean urine volume, treatment vs control group: Student-t test",
  "description": "For the test, Spontaneously Hypertensive Rats (SHRs, see American Journal of Physiology, 1998, vol. 275, p. R1279-1286 and Neurourology and Urodynamics, 2005, vol. 24, p. 295-300) (42-week-old, female, obtained from Japan SLC) were used. SHRs in the treatment group (n=12) ingested, for 8 weeks, a rosmarinic acid-containing feed (composition: 0.5 mass % rosmarinic acid (obtained from Carbosynth, Inc.), 66 mass % starch, 20 mass % casein, 5 mass % corn oil, 4 mass % cellulose, 3.5 mass % mineral, and 1 mass % vitamin). SHRs in the control group (n=12) ingested, for 8 weeks, a rosmarinic acid-free feed (composition: 66.5 mass % starch, 20 mass % casein, 5 mass % corn oil, 4 mass % cellulose, 3.5 mass % mineral, and 1 mass % vitamin). Then, their urination behavior was recorded in metabolic cages. Note that, before the recording in the metabolic cages, 4-day adaptation period was provided, and they were reared individually. The urination behavior recording (measurement of the urinary frequency and the urine volume) was carried out under conditions with free access to feed and water and under conditions with a 12/12-h light/dark cycle. The urine volume was weighed with an electronic balance while the urine was collected every urination. Note that a past report (see Neurourology and Urodynamics, 2017, vol. 36, p. 1034-1038) was consulted; the start time of a light period corresponding to a rest period of each rat was set to ZT0; the light period was divided into two periods of ZT0-6 and ZT6-12; and the urinary frequency during each period was defined as an indicator for nocturia. In addition, a dark period corresponding to an activity period was divided into two periods of ZT12-18 and ZT18-24; and the urinary frequency during each period was defined as an indicator for daytime frequent urination. […] The results were means±standard errors. To compare the inter-group means, Student-t test was used.",
  "data": [
    {"molecule": "O=C(/C=C/c1ccc(O)c(O)c1)O[C@H](Cc1ccc(O)c(O)c1)C(=O)O", "note": "[rosmarinic acid]", "values": [
      {"measurement": "Mean urinary frequency of rats during rest period", "setting": "ZT0-6 (rest period)", "result": "2.5 ± 0.2", "unit": "times/6 h"},
      {"measurement": "Mean urine volume of rats during rest period", "setting": "ZT0-6 (rest period)", "result": "1.7 ± 0.1", "unit": "mL/6 h"},
      {"measurement": "Significant difference in mean urinary frequency, treatment vs control group", "setting": "ZT0-6 (rest period)", "result": "N.S."},
      {"measurement": "Significant difference in mean urine volume, treatment vs control group", "setting": "ZT0-6 (rest period)", "result": "N.S."},
      {"measurement": "Mean urinary frequency of rats during rest period", "setting": "ZT6-12 (rest period)", "result": "2.4 ± 0.2", "unit": "times/6 h"},
      {"measurement": "Mean urine volume of rats during rest period", "setting": "ZT6-12 (rest period)", "result": "1.1 ± 0.1", "unit": "mL/6 h"},
      {"measurement": "Significant difference in mean urine volume, treatment vs control group", "setting": "ZT6-12 (rest period)", "result": "N.S."},
      {"measurement": "Mean urinary frequency of rats during activity period", "setting": "ZT12-18 (activity period)", "result": "6.7 ± 1.1", "unit": "times/6 h"},
      {"measurement": "Mean urine volume of rats during activity period", "setting": "ZT12-18 (activity period)", "result": "2.4 ± 0.4", "unit": "mL/6 h"},
      {"measurement": "Significant difference in mean urinary frequency, treatment vs control group", "setting": "ZT12-18 (activity period)", "result": "N.S."},
      {"measurement": "Significant difference in mean urine volume, treatment vs control group", "setting": "ZT12-18 (activity period)", "result": "N.S."},
      {"measurement": "Mean urinary frequency of rats during activity period", "setting": "ZT18-24 (activity period)", "result": "6.0 ± 0.7", "unit": "times/6 h"},
      {"measurement": "Mean urine volume of rats during activity period", "setting": "ZT18-24 (activity period)", "result": "2.4 ± 0.2", "unit": "mL/6 h"},
      {"measurement": "Significant difference in mean urinary frequency, treatment vs control group", "setting": "ZT18-24 (activity period)", "result": "N.S."},
      {"measurement": "Significant difference in mean urine volume, treatment vs control group", "setting": "ZT18-24 (activity period)", "result": "N.S."},
      {"measurement": "Significant difference in the mean urine volume during each time zone, treatment vs control group", "setting": "all time zones (ZT0-24)", "result": "undetected"}
    ]}
  ]
}
